Reference: PubChem BioAssay AID588388 (NMMLSC, 2011)
The source made the active and inactive calls.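 How the source made its calls: active means half-effect dose EC50 at most 10 µM and% response shifting 30% or more across doses, valid fit; inactive means the rest.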

What follows are compounds tested against GTPase HRas (Homo sapiens) (UniProt P01112) (assay: wild-type H-Ras GTP-binding inhibitors, SAR follow-up, biochemical, multiplex bead flow cytometry, round 1 (AID 588388)). Conditions: GST-H-Ras beads, Bodipy-GTP binding, EDTA.
Sequence of GTPase HRas (Homo sapiens) (P01112 whole entry, looked up): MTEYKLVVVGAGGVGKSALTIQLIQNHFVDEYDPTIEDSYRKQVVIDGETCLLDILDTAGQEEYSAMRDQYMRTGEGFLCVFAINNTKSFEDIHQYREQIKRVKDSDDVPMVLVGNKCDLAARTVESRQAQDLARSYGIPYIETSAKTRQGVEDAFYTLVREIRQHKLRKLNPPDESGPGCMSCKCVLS
In the case of `CC1Cc2c(sc(NC(=S)NC(=O)c3ccccc3)c2C(=O)O)CO1` (configuration not stated), the EC50 is reported as 54 nM. `CC1(C)Cc2c(sc(NC(=S)NC(=O)c3ccccc3)c2C(=O)O)CO1` showed an EC50 of 78 nM. `CC1(C)Cc2c(sc(NC(=S)NC(=O)c3cccc(F)c3)c2C(=O)O)CO1` was tested, and the EC50 was 290 nM. `COc1ccc(C(=O)NC(=S)Nc2sc3c(c2C(=O)O)CC(C)(C)OC3)cc1` was tested, and the EC50 was 108 nM. With `CC1(C)Cc2c(sc(NC(=S)NC(=O)c3ccc(Br)cc3)c2C(=O)O)CO1` the EC50 was 257 nM. `CC1(C)Cc2c(sc(NC(=S)NC(=O)c3ccccc3F)c2C(=O)O)CO1` showed an EC50 of 50 nM. With `O=C(NC(=S)Nc1sc2c(c1C(=O)O)CCOC2)c1ccccc1` the EC50 was 33 nM. Work on `COc1cccc(C(=O)NC(=S)Nc2sc3c(c2C(=O)O)CC(C)(C)OC3)c1` yielded an EC50 of 30 nM. `CC1(C)Cc2c(sc(NC(=O)NC(=O)c3ccccc3)c2C(=O)O)CO1` was tested, and the EC50 was 149 nM. Work on `CC1(C)Cc2c(sc(NC(=S)NC(=O)c3ccccc3Br)c2C(=O)O)CO1` yielded an EC50 of 46 nM. Compound `CC1(C)CCc2sc(NC(=S)NC(=O)c3ccccc3)c(C(=O)O)c2C1` has an EC50 of 67 nM.

Same assay, conditions: GST-H-Ras beads, Bodipy-GTP binding, EDTA, at 100 µM (top of the series)
`CC1(C)Cc2c(sc(NC(=S)Nc3ccccc3)c2C(=O)O)CO1` was tested, and the “% response (lower = inhibition)” value was “inactive”. In the case of `CC1(C)Cc2c(sc(NC(=O)Cc3ccccc3)c2C(=O)O)CO1`, the “% response (lower = inhibition)” value is reported as “inactive”. For `CN1CCc2c(sc(NC(=O)Nc3ccc(F)cc3)c2C(=O)O)C1`, the “% response (lower = inhibition)” value was “inactive”. For `CCOC(=O)c1c(NC(=O)Nc2ccc(F)cc2)sc2c1CCN(C)C2`, the “% response (lower = inhibition)” value was “inactive”. In the case of `COC(=O)c1c(NC(=S)NC(=O)c2ccccc2)sc2c1CC(C)(C)OC2`, the “% response (lower = inhibition)” value is reported as “inactive”. For `CCOC(=O)c1c(NC(=S)Nc2ccccc2)sc2c1CC(C)(C)OC2`, the “% response (lower = inhibition)” value was “inactive”. In the case of `CCOC(=O)c1c(NC(=O)Nc2ccc(C)cc2)sc2c1CCN(C)C2`, the “% response (lower = inhibition)” value is reported as “inactive”. In the case of `CC(C)(C)OC(=O)c1c(NC(=S)NC(=O)c2ccccc2)sc2c1CCOC2`, the “% response (lower = inhibition)” value is reported as “inactive”. `CCOC(=O)c1c(NC(=O)NC(C)(C)C)sc2c1CCN(C)C2` was tested, and the “% response (lower = inhibition)” value was “inactive”. For `CCOC(=O)c1c(NC(=S)NC(=O)c2ccccc2)sc2ccccc12`, the “% response (lower = inhibition)” value was “inactive”. `CN1CCc2c(sc3nc(Nc4ccc(F)cc4)oc(=O)c23)C1` was tested, and the “% response (lower = inhibition)” value was “inactive”. `CCOC(=O)c1c(N)sc2ccccc12` was tested, and the “% response (lower = inhibition)” value was “inactive”. With `Cc1ccc(NC(=O)Nc2sc3c(c2C(=O)O)CCN(C)C3)cc1` the “% response (lower = inhibition)” value was “inactive”. In the case of `Cc1ccc(Nc2nc3sc4c(c3c(=O)o2)CCN(C)C4)cc1`, the “% response (lower = inhibition)” value is reported as “inactive”. With `COC(=O)c1c(N)sc2c1CC(C)(C)OC2` the “% response (lower = inhibition)” value was “inactive”. `CC1(C)Cc2c(sc(NC(=S)NC(=O)c3cccc(Br)c3)c2C(=O)O)CO1` was tested, and the “% response (lower = inhibition)” value was “inactive”.
